One series relates to human liver microsomes. Nature of the series: In vitro metabolism test. It counts as in vitro ADME. The following applies: 0.4mg protein/ml human liver microsomes, 0.02 mM test compound, NADPH-generating system, 37°C for 30 minutes, HPLC. The procedure: 0.05 mM EDTA-0.1M phosphate buffer (pH 7.4), distilled water, 0.4mg protein/ml human liver microsomes and 0.02 mM test compound were mixed in a test tube under ice-cooling. After the mixture was shaken at 37°C for 2 minutes beforehand, the mixture was added with a ready-mix of NADPH-generating system and then shaken at 37°C for 30 minutes. After the incubation, the reaction was stopped by cooling with ice. The mixture was added with acetonitrile and well mixted, and then centrifuged at 3000 rpm for 10 minutes. The resulting supernatant was subjected to HPLC measurement, and the residual rate of test compound was calculated from the ratio of a peak area of an unchanged compound in the reaction sample in comparison with a non-reaction mixture. Preparations of reagents and reaction mixtures were carried out by referring to Shin Seikagaku Koza, Vol. 5: Biological oxidation and drug metabolism edited by The Japanese Biochemical Society. […]

Series [1] deals with bronchoconstriction induced by U-46619. Description: Inhibitory effect on bronchoconstriction induced by U-46619 (Konzett-Roessler). The format is in vivo, Male Hartley guinea-pigs. The following applies: Cavia porcellus; 0.3 mg/kg orally, 2 hours before U-46619 (4 µg/kg, cervical vein), anesthetized guinea-pigs, compared to control group; read-out: Inhibition rate (%). The procedure:
Airway resistance was evaluated according to the method of Konzett-Roessler [Naunyn-Schmiedberg's Arch. Exp. Path. Pharmak., Vol. 195, 71 (1940)]. Male Hartley guinea-pigs (about 400g wt.) were anesthetized with urethane (1.5g/kg, i.p.) and ventilated by an artificial respirator (Model 683; Harvard). At the same time, overflowed air volume above the pressure of about 12cm H2O was measured by using a sensor (Model 7020; Ugo Basile) and the value was used as an index of bronchoconstriction. 0.3 mg/kg (5 ml/kg) of test compounds suspended in 5% gum Arabic was administered orally to the guinea-pigs fasted beforehand for 24 hours. After 2 hours, U-46619 (4 µg/kg; Cayman) was administered through the cervical vein, and then maximal response was measured. Inhibitory rates compared to the control group were calculated based on the response rate normalized by the complete closure as 100%. […]

A further series deals with T1, leukotriene D4 (Cavia porcellus, UniProt Q2NNR5).
T1 construct: tracheas were isolated from male Hartley guinea-pigs, and spiral specimens of approximately 2 cm length were prepared; from tissue; host or cells: isolated guinea-pig trachea (spiral strips)
T1 sequence (Q2NNR5 1-340): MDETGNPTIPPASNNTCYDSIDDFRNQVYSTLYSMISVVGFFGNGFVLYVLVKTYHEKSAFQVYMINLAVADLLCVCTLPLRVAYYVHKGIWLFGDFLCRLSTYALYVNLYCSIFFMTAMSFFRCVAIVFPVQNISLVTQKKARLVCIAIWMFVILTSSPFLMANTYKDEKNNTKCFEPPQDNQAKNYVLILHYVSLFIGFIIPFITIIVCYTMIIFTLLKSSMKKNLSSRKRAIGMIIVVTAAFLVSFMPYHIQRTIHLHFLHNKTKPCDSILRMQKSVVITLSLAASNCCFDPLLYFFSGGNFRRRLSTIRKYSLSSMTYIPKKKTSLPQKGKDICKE
Nature of the series: Leukotriene D4 antagonistic effect (isolated trachea, leukotriene D4 concentration-response curves, Schild). The arrangement: species or system male Hartley guinea-pigs. The following applies: isolated guinea-pig trachea, contraction by leukotriene D4, test compound treatment 30 minutes, indomethacin 1 × 10^-6M, method of Schild. The procedure:
According to an ordinary method, tracheas were isolated from male Hartley guinea-pigs, and spiral specimens of approximately 2 cm length were prepared. These specimens were suspended isotonically in organ baths that contained Krebs-Henseleit solution at 37°C under a resting tension of 0.5g. After contractions with acetylcholine (1 × 10^-5M; Ovisot for injection, Daiichi Seiyaku), and the first concentration-response curves were obtained by cumulative applications of 10^-10 to 10^-8M of leukotriene D4 (ULTRA FINE) in the organ baths. After treatments with test compounds at adequate concentrations for 30 minutes, the second concentration-response curves were obtained in the same manner as the first applications. pKB values were calculated using these two concentration-response curves according to the method of Schild [Pharmacological Review, Vol. 9, 242 (1957)]. Indomethacin (1 × 10^-6M, Sigma) was added beforehand to the organ bath to eliminate possible affections by thromboxane A2 and prostaglandin produced by stimulus of leukotriene D4 [Japan J. Pharmacol., Vol. 60, 227 (1992)]. […]

The test system of series [2] is bronchoconstriction induced by leukotriene D4. Description: Inhibitory effect on bronchoconstriction induced by leukotriene D4 (Konzett-Roessler). It counts as in vivo, Male Hartley guinea-pigs. Particulars: Cavia porcellus; oral administration 2 hours before leukotriene D4 (1 µg/kg, cervical vein), anesthetized guinea-pigs, indomethacin and propranolol pretreated. The procedure:
Airway resistance was evaluated according to the method of Konzett-Roessler [Naunyn-Schmiedberg's Arch. Exp. Path. Pharmak., Vol. 195, 71 (1940)]. Male Hartley guinea-pigs fasted beforehand for 24 hours were anesthetized with urethane, and then overflowed air volume was measured under artificial ventilation as an index of bronchoconstriction. Various doses of test compounds suspended in 5% gum Arabic were administered orally, and after 2 hours, leukotriene D4 (1 µg/kg; ULTRA FINE) was administered through the cervical vein. Then, values at 2 minutes were measured when maximum responses were obtained. Inhibitory rates compared to the control group were calculated based on the response rate normalized by the overflowed volume at complete closure as 100% bronchoconstriction rate, and the 50% inhibitory doses (ED50 values) were calculated using dose-inhibitory rate curves. Indomethacin (2mg/kg, i.v.) and propranolol (1mg/kg, i.v.) were administered at 10 minutes and 5 minutes before the administration of leukotriene D4, respectively. […]

Series [3] deals with T2, thromboxane A2 / prostaglandin H2 receptor (Cavia porcellus, UniProt A0A286Y4I8).
T2 construct: tracheas were isolated from male Hartley guinea-pigs, and spiral specimens of approximately 2 cm length were prepared; from tissue; host or cells: isolated guinea-pig trachea (spiral strips)
T2 sequence (A0A286Y4I8 1-347): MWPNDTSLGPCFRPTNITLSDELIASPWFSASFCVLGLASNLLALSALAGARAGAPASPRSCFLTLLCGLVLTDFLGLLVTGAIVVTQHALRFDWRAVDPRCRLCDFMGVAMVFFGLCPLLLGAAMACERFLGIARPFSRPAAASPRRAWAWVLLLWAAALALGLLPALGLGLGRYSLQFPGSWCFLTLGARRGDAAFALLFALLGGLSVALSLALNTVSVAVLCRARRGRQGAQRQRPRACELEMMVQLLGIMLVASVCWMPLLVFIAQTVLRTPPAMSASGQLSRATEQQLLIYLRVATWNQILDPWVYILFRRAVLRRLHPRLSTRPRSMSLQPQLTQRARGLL
Description: Thromboxane A2 antagonistic effect (isolated trachea, U-46619 concentration-response curves, Schild). On the set-up: species or system male Hartley guinea-pigs. The following applies: isolated guinea-pig trachea, contraction by U-46619, test compound treatment 5 minutes, indomethacin 3 × 10^-6M, method of Schild. The procedure:
According to an ordinary method, tracheas were isolated from male Hartley guinea-pigs, and spiral specimens of approximately 2 cm length were prepared. These specimens were suspended in organ baths that contained Krebs-Henseleit solution at 37°C under a resting tension of 1.5 g, and the changes in isometric tension were recorded. The first concentration-response curves were obtained by cumulative applications of 1 × 10^-9 to 3 × 10^-7M of U-46619 (Cayman, thromboxane A2 / prostaglandin H2 receptor agonist) in the organ baths. After treatments with test compounds at adequate concentrations for 5 minutes, the second concentration-response curves were obtained in the same manner as the first applications. pKB values were calculated using these two concentration-response curves according to the method of Schild [Pharmacological Review, Vol. 9, 242 (1957)]. Indomethacin (3 × 10^-6M, Sigma) was added beforehand to the organ bath to eliminate possible affections by thromboxane A2 and prostaglandin produced endogenously [Japan J. Pharmacol., Vol. 60, 227 (1992)].

SMILES strings stand for the structures.

As usually defined, the Kb is the affinity of an antagonist, worked out from how it opposes an agonist. The term ED50 denotes the midpoint of the dose-response relation. `O=C(O)CCCc1ccc(C(CCCC(F)(F)C(F)(F)F)NS(=O)(=O)c2ccc(Cl)cc2)s1` (stereo not shown) [Example 162, 4-[5-[1-(4-Chlorophenylsulfonylamino)-5,5,6,6,6-pentafluorohexyl]-2-thienyl]butyric Acid]: the “Residual rate (%)” value in the series on human liver microsomes stood at 72%. Further, the inhibition in vivo at 0.3 mg/kg in series [1] worked out at 85%. The Kb is 251 nM on leukotriene D4 and 0.398 nM in series [3]. The ED50 in series [2] was found to be 1.3 mg/kg.

For `O=C(O)CCCc1ccc(C(CCCC(F)(F)C(F)(F)F)NS(=O)(=O)c2ccc(F)cc2)s1` (stereo not shown) [Example 163, 4-[5-[5,5,6,6,6-Pentafluoro-1-(4-fluorophenylsulfonylamino)hexyl]-2-thienyl]butyric Acid], in the series with human liver microsomes, the “Residual rate (%)” value stood at 87%. For the same compound, in series [1], the inhibition in vivo at 0.3 mg/kg was 92%. For the same compound, the results for the Kb (at leukotriene D4; in series [3]) were 398 nM and 0.794 nM, respectively. Further, the ED50 in series [2] was 0.78 mg/kg.

Turning to `O=C(O)CCCc1ccc(C(CCCCCC(F)(F)F)NS(=O)(=O)c2ccc(F)cc2)s1` (stereo not shown) [Example 172, 4-[5-[7,7,7-Trifluoro-1-(4-fluorophenylsulfonylamino)heptyl]-2-thienyl]butyric Acid], the “Residual rate (%)” value in the series with human liver microsomes worked out at 84%. Further, the inhibition in vivo at 0.3 mg/kg in series [1] was determined as 73%. The Kb at leukotriene D4 was 251 nM; in series [3], 0.398 nM. Besides, the ED50 in series [2] was 2.4 mg/kg.

In the case of `O=C(O)CCCc1ccc(C(CCC(F)(F)C(F)(F)C(F)(F)F)NS(=O)(=O)c2ccc(F)cc2)s1` (stereo not shown) [Example 176, 4-[5-[4,4,5,5,6,6,6-Heptafluoro-1-(4-fluorophenylsulfonylamino)hexyl]-2-thienyl]butyric Acid], the “Residual rate (%)” value with human liver microsomes is 86%. For the same compound, the inhibition in vivo at 0.3 mg/kg in series [1] came out at 78%. Moreover, the Kb at leukotriene D4 is 126 nM; in series [3], 3.16 nM. Also, in series [2], the ED50 was 0.14 mg/kg.

Take `O=C(O)CCCc1ccc(C(CCCC(F)(F)C(F)(F)C(F)(F)F)NS(=O)(=O)c2ccc(Cl)cc2)s1` (stereo not shown) [Example 177, 4-[5-[1-(4-Chlorophenylsulfonylamino)-5,5,6,6,7,7,7-heptafluoroheptyl]-2-thienyl]butyric Acid]: in the series on human liver microsomes, the “Residual rate (%)” value came out at 87%. Moreover, the inhibition in vivo at 0.3 mg/kg in series [1] came out at 93%. For the same compound, the Kb at leukotriene D4 is 398 nM; in series [3] it was 6.31 nM. For the same compound, the ED50 in series [2] was found to be 0.69 mg/kg.

`O=C(O)CCCc1ccc(C(CCCC(F)(F)C(F)(F)C(F)(F)F)NS(=O)(=O)c2ccc(F)cc2)s1` (stereo not shown) [Example 178, 4-[5-[5,5,6,6,7,7,7-Heptafluoro-1-(4-fluorophenylsulfonylamino)heptyl]-2-thienyl]butyric Acid]: the “Residual rate (%)” value with human liver microsomes was determined as 84%. Moreover, the inhibition in vivo at 0.3 mg/kg in series [1] stood at 89%. The Kb is 398 nM at leukotriene D4 and 3.16 nM in series [3]. Moreover, the ED50 in series [2] is 0.67 mg/kg.

On to `O=C(O)CCCc1ccc(C(CCC(F)(F)C(F)(F)C(F)(F)C(F)(F)F)NS(=O)(=O)c2ccc(F)cc2)s1` (stereo not shown) [Example 179, 4-[5-[4,4,5,5,6,6,7,7,7-Nonafluoro-1-(4-fluorophenylsulfonylamino)heptyl]-2-thienyl]butyric Acid], for which the “Residual rate (%)” value with human liver microsomes came out at 78%. Besides, in series [1], the inhibition in vivo at 0.3 mg/kg came to 93%. Also, the values for the Kb (on leukotriene D4; in series [3]) were 100 nM and 7.94 nM, respectively. Further, the ED50 in series [2] turned out to be 0.17 mg/kg.

For the compound `O=C(O)CCCc1ccc(C(CCCC(F)(C(F)(F)F)C(F)(F)F)NS(=O)(=O)c2ccc(F)cc2)s1` (stereo not shown) [Example 183, 4-[5-[5,6,6.6-Tetrafluoro-5-trifluoromethyl-1-(4-fluorophenylsulfonylamino)hexyl]-2-thienyl]butyric Acid], in the series with human liver microsomes, the “Residual rate (%)” value amounted to 78%. Besides, in series [1], the inhibition in vivo at 0.3 mg/kg is 89%. For the same compound, the Kb was 398 nM at leukotriene D4 and 2 nM in series [3]. Also, the ED50 in series [2] was determined as 1.1 mg/kg.

For the compound `O=C(O)CCCc1ccc(C(CCCC(F)(F)C(F)(F)F)NS(=O)(=O)c2ccc(Cl)cc2)cc1` (stereo not shown) [Example 188, 4-[4-[1-(4-Chlorophenylsulfonylamino)-5,5,6,6,6-pentafluorohexyl]phenyl]butyric Acid], the “Residual rate (%)” value in the series with human liver microsomes amounted to 74%. Also, the inhibition in vivo at 0.3 mg/kg in series [1] turned out to be 88%. The Kb at leukotriene D4 is 200 nM; in series [3], 0.794 nM. In series [2], the ED50 was determined as 1.6 mg/kg.

Regarding `O=C(O)CCCc1ccc(C(CCCC(F)(F)C(F)(F)F)NS(=O)(=O)c2ccc(F)cc2)cc1` (stereo not shown) [Example 189, 4-[4-[5,5,6,6,6-Pentafluoro-1-(4-fluorophenylsulfonylamino)hexyl]phenyl]butyric Acid], the “Residual rate (%)” value with human liver microsomes is reported as 88%. Besides, in series [1], the inhibition in vivo at 0.3 mg/kg was 71%. The values for the antagonist equilibrium constant (Kb) (at leukotriene D4; in series [3]) were 251 nM and 2.51 nM, respectively. Besides, the ED50 in series [2] came out at 0.92 mg/kg.

As to `O=C(O)CCCc1ccc(C(CCC(F)(F)C(F)(F)C(F)(F)F)NS(=O)(=O)c2ccc(F)cc2)cc1` (stereo not shown) [Example 200, 4-[4-[4,4,5,5,6,6,6-Heptafluoro-1-(4-fluorophenylsulfonylamino)hexyl]phenyl]butyric Acid], the “Residual rate (%)” value in the series on human liver microsomes was 83%. Besides, the inhibition in vivo at 0.3 mg/kg in series [1] amounted to 82%. Besides, the Kb on leukotriene D4 was 251 nM; in series [3], 10 nM. Also, the ED50 in series [2] was found to be 0.21 mg/kg.

These data come from EP0943606A1, “BENZENESULFONAMIDE DERIVATIVES AND DRUGS CONTAINING THE SAME” (HOKURIKU SEIYAKU CO., LTD., priority 1996, dated 1998).
